{"source": "ChEMBL document CHEMBL6182861", "about": "“Structural modification of heptamethine indocyanine dyes with improved aqueous solubility and stability for photothermal therapy” (Eur J Med Chem, 2025)", "key": {"[1]": {"assay": "Aqueous solubility of compound by absorbance based assay", "type": "physicochemical", "conditions": "buffer"}, "[2]": {"system": "4T1", "assay": "Cytotoxicity against mouse 4T1 cells assessed as cell viability under dark condition up to 25 uM incubated for 24 hrs by MTT assay relative to control", "type": "functional"}, "[3]": {"assay": "Drug accumulation in tumor of female BALB/c mouse bearing mouse 4T1 cells at 2.5 mg/kg, iv measured up to 12 hrs by fluorescence imaging analysis", "type": "ADME, organism-based, Neoplasm", "conditions": "in vivo"}, "[4]": {"assay": "Biodistribution in liver of female BALB/c mouse bearing mouse 4T1 cells at 2.5 mg/kg, iv measured up to 12 hrs by fluorescence imaging analysis", "type": "ADME, organism-based", "conditions": "in vivo"}, "[5]": {"assay": "Drug excretion in female BALB/c mouse bearing mouse 4T1 cells at 2.5 mg/kg, iv measured up to 12 hrs by fluorescence imaging analysis", "type": "ADME, organism-based", "conditions": "in vivo"}, "[6]": {"assay": "Drug accumulation in tumor of female BALB/c mouse bearing mouse 4T1 cells assessed as increase in fluorescence intensity at 2.5 mg/kg, iv measured after 4 hrs by fluorescence imaging analysis", "type": "ADME, organism-based, Neoplasm", "conditions": "in vivo"}, "[7]": {"system": "4T1", "assay": "Antitumor activity against mouse 4T1 cells implanted in female BALB/c mouse assessed as necrotic tissue at 2.5 mg/kg, iv pretreated for 4 hrs followed by exposure to laser irradiation of 808 nm for 5 mins on every 2 days treated for 15 days by H and E staining based analysis", "type": "functional, organism-based", "conditions": "time 15.0 day"}, "[8]": {"system": "4T1", "assay": "Antitumor activity against mouse 4T1 cells implanted in female BALB/c mouse assessed as cellular damage at 2.5 mg/kg, iv treated on every 2 days treated for 15 days by H and E staining based analysis", "type": "functional, organism-based", "conditions": "time 15.0 day"}, "[9]": {"assay": "Toxicity in female BALB/c mouse bearing mouse 4T1 cells assessed as damage in heart at 2.5 mg/kg, iv pretreated for 4 hrs followed by exposure to laser irradiation of 808 nm for 5 mins on every 2 days treated for 15 days by H and E staining based analysis", "type": "organism-based", "conditions": "in vivo, 360 h, time 15 day"}, "[10]": {"assay": "Toxicity in ICR mouse bearing mouse H22 cells assessed as damage in heart at 2.5 mg/kg, iv pretreated for 4 hrs followed by exposure to laser irradiation of 808 nm for 5 mins on every 2 days treated for 15 days by H and E staining based analysis", "type": "organism-based", "conditions": "in vivo, 360 h, time 15 day"}, "[11]": {"assay": "Toxicity in female BALB/c mouse bearing mouse 4T1 cells assessed as body weight at 1.8 mg/kg, iv pretreated for 4 hrs followed by exposure to laser irradiation of 808 nm for 5 mins on every 2 days treated for 15 days", "type": "organism-based", "conditions": "in vivo, 360 h, time 15 day"}, "[12]": {"system": "4T1", "assay": "Antitumor activity against mouse 4T1 cells implanted in female BALB/c mouse assessed as tumor growth inhibition at 1.8 mg/kg, iv pretreated for 4 hrs followed by exposure to laser irradiation of 808 nm for 5 mins on every 2 days treated for 15 days", "type": "functional, organism-based", "conditions": "time 15.0 day"}, "[13]": {"system": "4T1", "assay": "Antitumor activity against mouse 4T1 cells implanted in female BALB/c mouse assessed as decrease in tumor volume at 1.8 mg/kg, iv treated for 4 hrs on every 2 days treated for 15 days", "type": "functional, organism-based", "conditions": "time 15.0 day"}, "[14]": {"system": "4T1", "assay": "Antitumor activity against mouse 4T1 cells implanted in female BALB/c mouse assessed as cellular damage at 1.8 mg/kg, iv pretreated for 4 hrs followed by exposure to laser irradiation of 808 nm for 5 mins on every 2 days treated for 15 days by H and E staining based analysis", "type": "functional, organism-based", "conditions": "time 15.0 day"}, "[15]": {"system": "4T1", "assay": "Antitumor activity against mouse 4T1 cells implanted in female BALB/c mouse assessed as cellular damage at 1.8 mg/kg, iv treated on every 2 days treated for 15 days by H and E staining based analysis", "type": "functional, organism-based", "conditions": "time 15.0 day"}, "[16]": {"assay": "Toxicity in female BALB/c mouse bearing mouse 4T1 cells assessed as damage in liver at 1.8 mg/kg, iv pretreated for 4 hrs followed by exposure to laser irradiation of 808 nm for 5 mins on every 2 days treated for 15 days by H and E staining based analysis", "type": "organism-based", "conditions": "in vivo, 360 h, time 15 day"}, "[17]": {"assay": "Toxicity in female BALB/c mouse bearing mouse 4T1 cells assessed as damage in lung at 1.8 mg/kg, iv pretreated for 4 hrs followed by exposure to laser irradiation of 808 nm for 5 mins on every 2 days treated for 15 days by H and E staining based analysis", "type": "organism-based", "conditions": "in vivo, 360 h, time 15 day"}}, "note": "Active and inactive are the calls of the source. The calls are words filed in the database; no cut-off is given here.", "data": [{"smiles": "COCCOCCOCCN1/C(=C/C=C/C(=C/C=C/C2=[N+](CCOCCOCCOC)c3ccccc3C2(C)C)C(=O)OC)C(C)(C)c2ccccc21.[I-]", "values": [{"measurement": "solubility", "setting": "[1]", "value": "soluble"}, {"measurement": "Activity", "setting": "[2]", "value": 55, "unit": "%"}, {"measurement": "Drug uptake", "setting": "[3]", "value": "Active"}, {"measurement": "Drug uptake", "setting": "[4]", "value": "Active"}, {"measurement": "Drug excretion", "setting": "[5]", "value": "Active"}, {"measurement": "Drug uptake", "setting": "[6]", "value": "Active"}, {"measurement": "Activity", "setting": "[7]", "value": "Active"}, {"measurement": "Activity", "setting": "[8]", "value": "Not active; Minor Cell Damage Was Observed"}, {"measurement": "Activity", "setting": "[9]", "value": "Non-toxic"}, {"measurement": "Activity", "setting": "[10]", "value": "Non-toxic"}]}, {"smiles": "COC(=O)C(=C\\C=C\\C1=[N+](C)c2ccccc2C1(C)C)/C=C/C=C1/N(C)c2ccccc2C1(C)C.[I-]", "values": [{"measurement": "Activity", "setting": "[11]", "value": 18, "unit": "g"}, {"measurement": "inhibition", "setting": "[12]", "value": "Active; Minimal Effect Was Observed"}, {"measurement": "Activity", "setting": "[13]", "value": "inactive"}, {"measurement": "Activity", "setting": "[14]", "value": "Not active; Minor Cell Damage Was Observed"}, {"measurement": "Activity", "setting": "[15]", "value": "Not active; Minor Cell Damage Was Observed"}, {"measurement": "Activity", "setting": "[16]", "value": "Non-toxic"}, {"measurement": "Activity", "setting": "[17]", "value": "Non-toxic"}]}]}
